Like-named read-outs stand apart in the source and are kept apart here.
Target: T1, GST-tagged ROR gamma ligand binding domain (LBD) (Homo sapiens, UniProt P51449)
T1 construct: purchased Invitrogen
T1 sequence (P51449 269-508 limits assumed): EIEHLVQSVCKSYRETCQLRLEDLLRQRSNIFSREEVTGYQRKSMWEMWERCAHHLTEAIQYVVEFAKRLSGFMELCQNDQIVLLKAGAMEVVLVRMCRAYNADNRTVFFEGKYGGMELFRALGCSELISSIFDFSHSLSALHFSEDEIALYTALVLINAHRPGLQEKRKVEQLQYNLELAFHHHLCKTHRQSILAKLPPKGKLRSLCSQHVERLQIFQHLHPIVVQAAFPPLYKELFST
Experiment: TR-FRET assay for ROR gamma (Lantha Screen, co-activator peptide recruitment)
Assay type: biochemical
Details: for inhibition at 1 µM: read-out: % inhibition at 1 μM; for inhibition at 10 µM: read-out: % inhibition at 10 μM

[1] = compound concentration 1 μM, TR-FRET ratio 520/495, percent of control
[2] = compound concentration 10 μM, TR-FRET ratio 520/495, percent of control

Compound | inhibition at 1 µM [%] | inhibition at 10 µM [%] | IC50 (class symbols, from dose response curve, read-out: IC50 value) [nM] | inhibition at 1 µM [1] [%] | inhibition at 10 µM [2] [%]
CCOC(=O)c1ccc(-n2cc(C(=O)c3c(Cl)cccc3Cl)c3cccc(F)c32)c(F)c1 [Example 42, Ethyl 4-[3-(2,6-dichloro-benzoyl)-7-fluoro-1H-indol-1-yl]-3-fluorobenzoate] | 0.61 | – | – | – | –
CCCOC(=O)c1ccc(-n2cc(C(=O)c3c(Cl)cccc3Cl)c3cccc(F)c32)c(F)c1 [Example 43, Propyl 4-[3-(2,6-dichloro-benzoyl)-7-fluoro-1H-indol-1-yl]-3-fluorobenzoate] | 6.99 | 1.02 | – | – | –
CCCCOC(=O)c1ccc(-n2cc(C(=O)c3c(Cl)cccc3Cl)c3cccc(F)c32)c(F)c1 [Example 44, Butyl 4-[3-(2,6-dichloro-benzoyl)-7-fluoro-1H-indol-1-yl]-3-fluorobenzoate] | 3.55 | 2.25 | – | – | –
CCOC(=O)c1ccc(-n2nc(Oc3c(Cl)cccc3C(F)(F)F)c3ccccc32)c(F)c1 [Example 45, Ethyl 4-{3-[2-chloro-6-(trifluoromethyl)phenoxy]-1H-indazol-1-yl}-3-fluorobenzoate] | – | – | 50 to 100 | 97.9 | 93.7
CCCOC(=O)c1ccc(-n2nc(Oc3c(Cl)cccc3C(F)(F)F)c3ccccc32)c(F)c1 [Example 46, Propyl 4-{3-[2-chloro-6-(trifluoromethyl)phenoxy]-1H-indazol-1-yl}-3-fluorobenzoate] | – | – | – | 10.9 | 28.5
CCCCOC(=O)c1ccc(-n2nc(Oc3c(Cl)cccc3C(F)(F)F)c3ccccc32)c(F)c1 [Example 47, Butyl 4-{3-[2-chloro-6-(trifluoromethyl)phenoxy]-1H-indazol-1-yl}-3-fluorobenzoate] | – | – | – | 52 | 91.9
CC(C)OC(=O)c1ccc(-n2nc(Oc3c(Cl)cccc3C(F)(F)F)c3ccccc32)c(F)c1 [Example 48, Isopropyl 4-{3-[2-chloro-6-(trifluoromethyl)phenoxy]-1H-indazol-1-yl}-3-fluorobenzoate] | – | – | – | 26.3 | 84.6
